Patent publication US20200325509A1, “Microorganisms and Methods in the Fermentation of Benzylisoquinoline Alkaloids” (Intrexon Corporation, priority 2017, published 2020)

Legend:
THS2 = THS2 (Papaver somniferum, UniProt A0A2U9GGW3); assay: direct in vitro THS assay (kinetic analysis of THS2); conditions: for inhibition of THS2 activity on (7S)-salutaridinol 7-O-acetate: added to the direct assay
[1] = stability of salutaridinol 7-O-acetate in chloroform and aqueous conditions
[2] = substrate of purified recombinant THS2, direct assay quenched after 30 sec

THS2, sequence (A0A2U9GGW3 whole entry): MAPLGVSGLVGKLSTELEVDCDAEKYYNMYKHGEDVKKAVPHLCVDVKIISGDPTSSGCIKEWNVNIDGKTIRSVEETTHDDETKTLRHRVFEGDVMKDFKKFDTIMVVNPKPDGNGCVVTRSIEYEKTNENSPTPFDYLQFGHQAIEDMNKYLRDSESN

Structure (SMILES)	pH optimum (THS2; THS2 activity on this substrate, direct assay 30 sec, 40 μM substrate)	positive cooperativity (η) (THS2; substrate of purified recombinant THS2, direct assay)	KA (THS2; [2]) [µM]	Vmax (THS2; [2]) [nmol min^1 μg^−1]	formation of m/z 330-byproduct ([1]; exposure to aqueous conditions) [%]	time of formation of m/z 330-byproduct ([1]; exposure to aqueous conditions) [min]	stability ([1]; in chloroform)	inhibition of THS2 activity on (7S)-salutaridinol 7-O-acetate (THS2)	thebaine production by THS2 directly from the substance (THS2; pH 7.0)
COC1=C[C@]23CCN(C)[C@H](Cc4ccc(OC)c(O)c42)C3=C[C@@H]1OC(C)=O [(7S)-salutaridinol 7-O-acetate]	8.0	2.3	20	4.0	> 70	< 2	relatively stable		
COC1=C[C@]23CCN(C)[C@H](Cc4ccc(OC)c(O)c42)C3=C[C@@H]1O [(7S)-salutaridinol]								marginally inhibited	did not produce thebaine
COC1=C[C@]23CCN(C)[C@H](Cc4ccc(OC)c(O)c42)C3=CC1=O [salutaridine]								marginally inhibited	
